Data published in patent EP0101294B1, “Composition for protecting and healing gastro-duodenal mucosa and the liver of mammals” (THE REGENTS OF THE UNIVERSITY OF CALIFORNIA, priority 1982, dated 1984).
Marks after values point to notes of the source that are not given here. Values belong to the molecule of their own block, whether it stands above or below them.

Experiments:
Assay type in all cases: in vivo, Spraque-Dawley rats
gastric mucosa [1] = assay: Study 1: arachidonic acid mucosal protection 3 hours after ethanol, computerized analysis of hemorrhagic area; conditions: percent of total glandular mucosal area
Description: (§1) The animals used in the examples were Spraque-Dawley rats (225 to 250 grams bodyweight). Twenty-four hours prior to the experimentation the animals were fasted in wire-bottomed cages to prevent coprophagy.
Animals were given by gavage 1 ml of either saline, or 5 mM PL solution in saline, or 1 ml of the PL-saline solution containing arachidonic acid in 30, 60 and 120 mM concentrations respectively. One-half hour or 1 hour later, 2 ml of absolute ethanol were instilled into the stomach by gavage. Three hours later the animals were sacrificed and their stomachs removed.
A camera with 100 mm macro lens was used to photograph the mucosal surface of the stomach. The same type of film and identical conditions of specimen distance from the lens, light intensity and film development were used throughout the study. Color slides were evaluated by a computerized image analysis. Each slide was converted to a black-and-white video image consisting of 65,000 points. White represented normal gastric mucosa, while gray or black represented hemorrhagic changes. […] Absolute white was given a 255 value while absolute black was given a value of 0. Boundaries delineating the glandular mucosa were drawn on the digital video image with a sonic pen. All spatial and contrast information was stored on a magnetic disk. Each glandular mucosal area was classified interactively by slicing the spectrum of mucosal values into 2 or more subgroups and by displaying the resultant simplified digital image for verification with the more complex analog photographic input. Once a classification scheme was established, a spatial rendition of the picture's point was printed and plotted to scale on paper. A summary of the computer results was also printed and included boundary values for each gray-level slice and the absolute and relative areas of each class. The areas of hemorrhagic changes were expressed as the percentage of the entire gastric glandular mucosal area.

gastric mucosa [2] = assay: Study 2: arachidonic acid mucosal protection 15 hours after ethanol, computerized analysis of hemorrhagic area; conditions: 1 ml 120 mM AA (37 mg) in PL intragastric 1 hour before 2 ml ethanol; evaluated 15 hours after ethanol; percent of total glandular mucosal area
Description: as §1
One ml of 120 mM arachidonic acid solution (37 mg arachidonic acid) or 5 mM PI solution was instilled into the stomach 1 hour prior to the intragastric administration of 2 ml ethanol. The animals were killed 15 hours after ethanol administration and their stomachs were examined.
A camera with 100 mm macro lens was used to photograph the mucosal surface of the stomach. The same type of film and identical conditions of specimen distance from the lens, light intensity and film development were used throughout the study. Color slides were evaluated by a computerized image analysis. Each slide was converted to a black-and-white video image consisting of 65,000 points. White represented normal gastric mucosa, while gray or black represented hemorrhagic changes. […] Absolute white was given a 255 value while absolute black was given a value of 0. Boundaries delineating the glandular mucosa were drawn on the digital video image with a sonic pen. All spatial and contrast information was stored on a magnetic disk. […] The areas of hemorrhagic changes were expressed as the percentage of the entire gastric glandular mucosal area.

gastric mucosa [3] = assay: Study 3: intragastric versus intrajejunal arachidonic acid, pylorus ligated, ethanol-induced gastric mucosal injury; conditions: 1 hour before 2 ml ethanol, evaluated 2 hours after ethanol
Description: as §1
The next series of experiments was designed to compare the effect of intragastric to intrajejunal pretreatment with arachidonic acid on ethanol-induced gastric mucosal injury. The animals were anesthetized with nembutal (50 mg nembutal per kg body weight intraperitoneally), their abdomens were opened and either 1 ml of 120 mM arachidonic acid or 5 mM PL was installed intragastrically or 1 ml of 120 mM arachidonic acid intrajejunally with a polyethylene catheter introduced through a small duodenal incision. The pylorus was ligated immediately after solution instillation. One hour later the gastric contents were removed and 2 ml of ethanol were instilled through the catheter. The stomach was examined 2 hours later.
A camera with 100 mm macro lens was used to photograph the mucosal surface of the stomach. The same type of film and identical conditions of specimen distance from the lens, light intensity and film development were used throughout the study. Color slides were evaluated by a computerized image analysis. […] The areas of hemorrhagic changes were expressed as the percentage of the entire gastric glandular mucosal area.

gastric mucosa [4] = assay: Histological studies of gastric mucosa (light microscopy)
Description: Mucosal specimens 5 mm in width were cut from the forestomach to the pylorus. The specimens were obtained (a) 60 minutes after intragastric administration of 1 ml of solution containing either saline, PL or 120 mM arachidonic acid or (b) 3 hours after intragastric instillation of 2 ml of ethanol in animals which had received 1 ml of solution containing either saline or PL or 120 mM arachidonic acid 1 hour before ethanol. Specimens were fixed in buffered 10% formalin and stained. Coded specimens were examined "blindly" by light microscopy. In the histological evaluation special attention was paid to the continuity of the surface epithelium layer, presence or absence of hemorrhagic erosions, edema of the submucosa and infiltration with polymorphonuclear neutrophils.

gastric mucosa [5] = assay: Scanning electron microscopy of gastric mucosa after ethanol; conditions: 3 hours after ethanol, arachidonic acid pretreated rats
Text: Gastric mucosal specmens, fixed in 3.5% buffered glutaraldehyde were processed routinely for scanning electronmicroscopy and evaluated in a JOEL-35 scanning electronmicroscope operated at 20 kV.

PGE2 = PGE2 measurement in gastric contents (radioimmunoassay, bioassay)
Description: PGE2 was measured by direct radioimmunoassay using antisera generated in rabbits by immunization of PGE2 linked to bovine thyroglobulin. For additional confirmation of PGE2 measurements, samples were also subjected to bioassay. After addition of approximately 5000 CPM of ^3H-labeled PGE2 for recovery calculations, samples were adjusted to pH 4.3 with 0.5 M phosphate buffer and extracted twice with ethyl acetate. The organic layer was subjected to thin layer chromatography (benzene:dioxane:acetic acid, 90:60:3), and the PGE2 fraction was extracted with methanol, dried and reconstituted in 0.9% NaCl for assay. A bioassay cascade (according to Vane) was used to assay simultaneously the samples in 2 aliquot sizes and on 3 rat stomach strips. The concentration of PGE2 in the gastric contents were measured in 2 groups of rats 30 or 60 minutes following intragastric installation of 1 ml of 120 mM arachidonic acid or 1 ml PL in order to determine the extent of arachidonic acid conversion to PGE2 by the gastric mucosa. The spontaneous release of PGE2 into the gastric lumen was assessed in animals receiving PL pretreatment only. In addition, PGE2 concentration in the original 120 mM arachidonic acid solution was measured before intragastric instillation.

gastric mucosa [6] = assay: Study 5: arachidonic acid mucosal protection against taurocholic acid; conditions: 1 ml 120 mM AA in PL; 3 ml 80 mM TCA in 0.1 n HCl twice; 3 hours after second TCA dose
Description: as §1
Rats were given intragastric treatment by peroral tube with 1 ml of PL solution or 1 ml of PL solution containing 120 mM arachidonic acid (AA). The rats then received, intragastrically, 3 mls of a 80 mM solution of taurocholic acid (TCA) dissolved in 0.1 n in HCI, adminstered twice: one or two hours after PL or AA pretreatment. Animals were sacrificed 3 hours after second TCA administration.
Gastric mucosa was assessed macroscopically and histologically for damage in a similar manner as in studies with ethanol. […] These lesions corresponding histologically to necrotic lesions were similar to those seen after ethanol.

gastric mucosa [7] = assay: Study 6: arachidonic and linoleic acid mucosal protection against acetylsalicylic acid; conditions: for Macroscopic mucosal changes (lesion index, number of lesions x severity): 1 ml 120 mM AA or 240 mM LLC in PL 1 hour before 200 mg/kg aspirin intragastrically, 4 hours after acetyl salicylic acid; for Histologic evaluation: deep necrotic lesions / Mucosa by scanning electromicroscopy: 4 hours after aspirin, 120 mM AA or 240 mM LLC pretreatment
Description: as §1
Rats were given intragastric treatment by peroral tube with 1 ml of PL solution, 1 ml of PL solution containing 120 mM arachidonic acid (AA), or 1 ml of PL solution containing 240 mM linoleic acid (LLC). One hour after such treatment a suspension of 200 mg/kg bodyweight of aspirin in 0.1 n HCI containing 1% methyl cellulose was administered intragastrically in 1 ml volume. The animals were sacrified 4 hours after acetyl salicylic acid administration.
• 1) Macroscopic quantitation of mucosal changes based on scoring system estimating presence or absence of hemorrhagic lesions, their number and severity graded on arbitrary scale 1 to 4. Lesion index, expressed as an average score (number of lesionsxseverity) was estimated per each group of animals. • 2) Mucosal histology • 3) Scanning electron microscopy

liver = assay: Study 7: liver protection against ethanol, electron microscopy of hepatocytes; conditions: 1 ml 120 mM AA (37 mg) in PL by gavage 1 hour before 2.5 ml 100% ethanol; sacrificed 24 hours later
Description: 40 rats were given, by gavage, either 1 ml of 5 mM PL solution (as a control) or a 1 ml of 120 mM arachidonic acid in the 5 mM PL solution. One hour later the rats were given 2.5 ml of 100% ethanol and the animals sacrificed 24 hours later.
The liver was then removed and specimens fixed for 2 hours in 3.5% purified glutaraldehyde (buffered in 0.1 M phosphate of 7.4). The liver specimens were washed with buffer and postfixed in 1% osmium tetroxide at 0°C for 1 hour. After dehydration with graded ethanol the tissue was embedded in epoxy resin. Silver gray thin sections of the specimen were double stained with 2% uranyl acetate followed by lead citrate and examined with an RCA electron microscope.

gastric mucosa [8] = assay: Study 4: linoleic acid mucosal protection against ethanol; conditions: 3 hours after ethanol
Description: Twenty-four hours prior to the experimentation the animals were fasted in wire-bottomed cages to prevent coprophagy.
The rats were given intragastric treatment by peroral tube 1 ml of PL solution; 1 ml of the PL solution containing 120 mM linoleic acid (LLC) or 240 mM LLC; or 1 ml of 240 mM oleic acid solubilized in 5 mM PL. […] Macroscopic and histologic mucosal changes were evaluated as in the studies with arachidonic acid.

[9] = histology 3 hours after 2 ml absolute ethanol, pretreated with 1 ml 120 mM AA+PL 1 hour before
[10] = 1 ml 240 mM in 5 mM PL intragastric pretreatment

SMILES: CCCCC/C=C\C/C=C\C/C=C\C/C=C\CCCC(=O)O [AA, arachidonic acid]
Hemorrhagic area*(%) (gastric mucosa [1]; 1 ml 30 mM AA in 5 mM PL by gavage 1 hour before 2 ml ethanol, stomach evaluated 3 hours after ethanol): 15.4% | Hemorrhagic area*(%) (gastric mucosa [1]; 1 ml 60 mM AA in 5 mM PL by gavage 1 hour before 2 ml ethanol, evaluated 3 hours after ethanol): 3.0% | Hemorrhagic area*(%) (gastric mucosa [1]; 1 ml 120 mM AA in 5 mM PL by gavage 1 hour before 2 ml ethanol, evaluated 3 hours after ethanol): 0.6% | Hemorrhagic area*(%) (gastric mucosa [1]; Group E: 1 ml 120 mM AA in 5 mM PL by gavage 30 minutes before 2 ml ethanol, evaluated 3 hours after ethanol): 0.8% | Hemorrhagic area*(%) (gastric mucosa [2]): 0.6% | Hemorrhagic area*(%) (gastric mucosa [3]; 1 ml 120 mM AA intragastrically): 5.3% | Hemorrhagic area*(%) (gastric mucosa [3]; 1 ml 120 mM AA intrajejunally): 28.1% | Histological changes of gastric mucosa after the acid alone (gastric mucosa [4]; 60 minutes after intragastric 1 ml 120 mM arachidonic acid, no ethanol): did not change the appearance of the gastric mucosa | Edema of submucosa accumulation of polymorphonuclears (gastric mucosa [4]; [9]): Present | Hemorrhagic erosions (gastric mucosa [4]; [9]): Absent | The surface epithelium layer (gastric mucosa [4]; [9]): Present, continuous (minor focal defects seen occasionally) | Mucosal surface by scanning electronmicroscopy (gastric mucosa [5]): nondisrupted and normal appearance | values of PGE2 in the gastric content higher than in animals that received PL only (PGE2; 30 and 60 minutes after intragastric instillation, relative to PL group): 5,000-13,000 | PGE2 concentration (ng/ml) (PGE2; gastric contents 30 min after intragastric instillation of 1 ml 120 mM AA): 7360.0* ng/ml | PGE2 concentration (ng/ml) (PGE2; gastric contents 60 min after intragastric instillation of 1 ml 120 mM AA): 4100.0* ng/ml | mucosal lesions, macroscopically and histologically (gastric mucosa [6]): not detectable | Macroscopic mucosal changes (lesion index, number of lesions x severity) (gastric mucosa [7]): 2±0.3 | Histologic evaluation: deep necrotic lesions (gastric mucosa [7]): deep necrotic lesions did not occur | Mucosa by scanning electromicroscopy (gastric mucosa [7]): nearly normal mucosa | ultrastructural changes in the hepatocytes (liver): most of the alcohol induced changes were virtually prevented

edema in the forestomach (gastric mucosa [8]; macroscopic, group pretreated with linoleic acid): marked edema in the forestomach
SMILES: CCCCC/C=C\C/C=C\CCCCCCCC(=O)O [LLC, linoleic acid]
macroscopic hemorrhagic lesions, % of glandular mucosal area (gastric mucosa [8]; 1 ml 120 mM in 5 mM PL intragastric pretreatment): 6.5±1% | macroscopic hemorrhagic lesions, % of glandular mucosal area (gastric mucosa [8]; [10]): 1.3±0.5% | Mucosal histology: deep necrotic lesions (gastric mucosa [8]): no deep necrotic lesions were present | Macroscopic mucosal changes (lesion index, number of lesions x severity) (gastric mucosa [7]): 8±1 | Histologic evaluation: deep necrotic lesions (gastric mucosa [7]): deep necrotic lesions did not occur | Mucosa by scanning electromicroscopy (gastric mucosa [7]): nearly normal mucosa

SMILES: CCCCCCCC/C=C\CCCCCCCC(=O)O [oleic acid, reference compound]
macroscopic hemorrhagic lesions, % of glandular mucosal area (gastric mucosa [8]; [10]): 29.1±3% | Mucosal histology: deep necrotic lesions (gastric mucosa [8]): deep hemorrhagic necrotic lesions penetrating into muscularis mucosa were present
